Counter-ions that a name gives are not always drawn.
Key:
5-HT transporter = target: T1, 5-HT transporter (Rattus norvegicus, UniProt P31652); experiment: Rat Brain 3H-Paroxetine Binding Assay (RB 5HT Transporter)
T1 construct: frontal cortical membranes prepared from male S.D. rats; from tissue; host or cells: rat frontal cortex membranes (male Sprague-Dawley)
Protocol: Rat Brain ^3H-Paroxetine Binding Assay (RB 5HT Transporter):
This assay is used to determine a compound's affinity of the 5-HT transporter.
(§1) Briefly, frontal cortical membranes prepared from male S.D. rats are incubated with ^3H-parxetine (0.1 nM) for 60 min. at 25° C. All tubes contain either vehicle, test compound (one to eight concentrations), or a saturating concentration of fluoxetine (10 μM) to define […]. All reactions are terminated by the addition of ice cold Tris buffer followed by rapid filtration using a Tom Tech filtration device to separate bound from free ^3H-paroxetine.

Human 5-HT Transporter = target: T2, Human 5-HT Transporter (Homo sapiens, UniProt P31645); experiment: Inhibition of 3H-5-HT Uptake by Cells Possessing the Human 5-HT Transporter (HC 5HT Transporter); format: cell-based
T2 construct: endogenous in cells; host or cells: JAR human carcinoma cells, treated with staurosporine
Protocol: On the day of assay, vehicle, excess of fluoxetine, or test compound is added to various wells on the plate. All wells then receive ^3H-5-HT and are incubated at 37° C. for 5 min. The wells are then washed with ice cold 50 mM Tris HCl (pH 7.4) buffer and aspirated to remove free ^3H-5-HT. 25 μl of 0.25 M NaOH is then added to each well to lyse the cells and 75 μl scintillation cocktail (Microscint™ 20) added prior to quantitation on a Packard TopCount machine. Tubes with vehicle represent total possible uptake; radioactivity counted in tubes with fluoxetine represent nonspecific binding/uptake and is subtracted from the total possible uptake to give total possible specific uptake. […] Specific uptake is then expressed as a % of control values and is analyzed using nonlinear regression analysis (Prizm) to determine IC50 values.

human 5-HT1A receptor = target: T3, human 5-HT1A receptor (Homo sapiens, UniProt P08908); experiment: HC 5-HT1A binding assay ([3H]8-OH-DPAT radioligand binding, h5-HT1A.CHO cell membranes)
T3 construct: expressed in transfected cells
T3 sequence (P08908 1-422): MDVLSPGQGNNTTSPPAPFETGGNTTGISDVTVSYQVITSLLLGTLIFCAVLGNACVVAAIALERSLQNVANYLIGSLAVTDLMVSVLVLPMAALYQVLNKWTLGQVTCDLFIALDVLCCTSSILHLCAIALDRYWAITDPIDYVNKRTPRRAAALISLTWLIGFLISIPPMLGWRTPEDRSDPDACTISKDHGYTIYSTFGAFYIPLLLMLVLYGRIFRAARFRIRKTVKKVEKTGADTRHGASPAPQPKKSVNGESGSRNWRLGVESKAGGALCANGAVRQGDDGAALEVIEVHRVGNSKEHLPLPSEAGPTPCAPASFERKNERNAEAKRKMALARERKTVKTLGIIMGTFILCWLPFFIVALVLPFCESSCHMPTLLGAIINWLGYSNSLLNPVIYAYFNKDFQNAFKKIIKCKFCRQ
Protocol: Cloning of Human 5-HT1A Receptor:
A stable Chinese hamster ovary cell line expressing the human 5-HT1A receptor subtype (h5-HT1A.CHO cells) is employed throughout this study. Cells are maintained in DMEM supplemented with 10% fetal calf serum, non-essential amino acids and penicillin/streptomycin.
Cells are grown to 95-100% confluency as a monolayer before membranes are harvested for binding studies. Cells are gently scraped from the culture plates, transferred to centrifuge tubes, and washed twice by centrifugation (2000 rpm for 10 min., 4° C.) in buffer (50 mM Tris; pH 7.5). The resulting pellets are aliquoted and placed at −80 C. On the day of assay, the cells are thawed on ice, and resuspended in buffer. Studies are conducted using [^3H]8-OH-DPAT as the radioligand. The binding assay is performed in 96-well microtiter plates in a final total volume of […] of buffer. […] Non-specific binding is determined in the presence of 10 μM 5HT. Saturation analysis is conducted by using [^3H]8-OH-DPAT at concentrations ranging from 0.3-30 nM. Following a 30 minute incubation at room temperature, the reaction is terminated by the addition of ice cold buffer and rapid filtration using a M-96 Brandel Cell Harvester (Gaithersburg, Md.) through a GF/B filter presoaked for 30 minutes in 0.5% polyethyleneimine.
^3H-Paroxetine Binding to Assess Affinity of Drugs for the Serotonin Transporter ([…]):
as §1, with “^3H-paroxetine” for “^3H-parxetine”, “min” for “min.”

[1] = target: T4, cloned human 5-HT1A receptors (Homo sapiens, UniProt P08908); experiment: Assessment of agonism/antagonism at the 5-HT1A receptor using [35S]-GTPγS binding; format: biochemical
T4 construct: expressed in transfected cells
T4 sequence (P08908 1-422): T3 sequence (P08908 1-422)
Protocol: Assessment of Agonism/Antagonism at the 5-HT1A Receptor using [^35S]-GTPγS Binding to Cloned Human 5-HT1A Receptors:
Briefly, 5-HT1A cloned receptor membrane fragments (as used for 5-HT1A receptor binding assays) are stored at −70° C. until needed. When needed, membranes are rapidly thawed, centrifuged at 40,000× g for 10 minutes and resuspended at 4° C. for 10 minutes in assay buffer (25 mM HEPES, 3 mM MgCl2, 100 mM NaCl, 1 mM EDTA, 10 uM GDP, […], pH 8.0). These membranes are then incubated for 30 min at 30° C. with [^35S]GTPgS (1 nM) in the presence of vehicle, test compound (one to eight concentrations), or excess 8-OH-DPAT to define maximum agonist response. All reactions are terminated by the addition of ice cold Tris buffer followed by rapid filtration using a Tom Tech® filtration device to separate bound from free [^35S]GTPgS. Agonists produce an increase in the amount of [^35S]GTPgS bound whereas antagonists produce no increase in binding. Bound radioactivity is counted and analyzed as above.

T1 sequence (P31652 whole entry): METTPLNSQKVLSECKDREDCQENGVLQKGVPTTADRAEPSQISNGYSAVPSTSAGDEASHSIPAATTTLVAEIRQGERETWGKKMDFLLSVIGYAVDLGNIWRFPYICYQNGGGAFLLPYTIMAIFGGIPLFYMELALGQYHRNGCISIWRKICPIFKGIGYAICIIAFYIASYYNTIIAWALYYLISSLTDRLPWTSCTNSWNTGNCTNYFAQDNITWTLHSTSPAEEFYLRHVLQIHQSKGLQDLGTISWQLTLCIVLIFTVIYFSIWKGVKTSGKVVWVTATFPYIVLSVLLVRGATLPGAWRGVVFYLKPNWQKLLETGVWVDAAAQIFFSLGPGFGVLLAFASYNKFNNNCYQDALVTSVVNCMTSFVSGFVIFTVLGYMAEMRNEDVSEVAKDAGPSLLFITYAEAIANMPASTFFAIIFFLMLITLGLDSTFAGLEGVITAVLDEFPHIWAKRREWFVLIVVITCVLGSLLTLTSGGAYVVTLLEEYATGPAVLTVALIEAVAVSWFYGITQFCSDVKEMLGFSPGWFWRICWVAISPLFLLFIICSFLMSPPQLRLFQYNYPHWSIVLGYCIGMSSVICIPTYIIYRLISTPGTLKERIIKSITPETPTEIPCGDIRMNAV
T2 sequence (P31645 whole entry): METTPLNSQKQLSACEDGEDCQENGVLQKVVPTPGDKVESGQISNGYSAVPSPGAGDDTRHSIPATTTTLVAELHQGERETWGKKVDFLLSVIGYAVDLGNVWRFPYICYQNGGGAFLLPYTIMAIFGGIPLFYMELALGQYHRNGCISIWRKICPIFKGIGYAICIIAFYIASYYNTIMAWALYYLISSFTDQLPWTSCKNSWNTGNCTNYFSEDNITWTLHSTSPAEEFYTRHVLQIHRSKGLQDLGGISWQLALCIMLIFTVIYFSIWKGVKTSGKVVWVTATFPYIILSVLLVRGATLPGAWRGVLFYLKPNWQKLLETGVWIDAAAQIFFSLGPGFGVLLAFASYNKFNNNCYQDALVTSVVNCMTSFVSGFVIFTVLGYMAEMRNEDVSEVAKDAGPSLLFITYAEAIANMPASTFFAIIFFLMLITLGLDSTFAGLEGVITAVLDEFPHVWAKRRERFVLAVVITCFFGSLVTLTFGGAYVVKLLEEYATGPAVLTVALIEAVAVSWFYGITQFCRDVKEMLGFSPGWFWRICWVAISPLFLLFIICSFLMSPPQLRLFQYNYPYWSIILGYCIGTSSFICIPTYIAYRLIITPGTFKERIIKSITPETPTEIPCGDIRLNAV

## COc1cc(OCCN2C3C=C(c4ccc5ccccc5c4)CC2CC3)c2ncccc2c1 (stereo not drawn) (as salt: oxalate)
other
  melting point: 100 to 103 °C

## C1=C(c2c[nH]c3ccccc23)CC2CCC1N2CCOc1cccc2ncccc12 (stereo not drawn) (as salt: oxalate) [Example 3, 2-[3-(1H-Indol-3-yl)-8-azabicyclo[3.2.1]oct-2-en-8-yl]ethyl 5-quinolinyl Ether]
other
  melting point: 91 to 93 °C (dec.)

## C1=C(c2ccc3ccccc3c2)CC2CCC1N2CCOc1cccc2c1OCCO2 (stereo not drawn) (as salt: oxalate) [Example 4, 8-[2-(2,3-Dihydro-benzo[1,4]dioxin-5-yloxy)-ethyl]-3-naphthalen-2-yl-8-aza-bicyclo[3.2.1]oct-2-ene]
other
  melting point: 151 to 153 °C (dec.)

## COc1cc(NCCN2C3C=C(c4ccc5ccccc5c4)CC2CC3)c2ncccc2c1 (stereo not drawn) (as salt: oxalate) [Example 5, 6-Methoxy-N-{2-[3-(2-naphthyl)-8-azabicyclo[3.2.1]oct-2-en-8-yl]ethyl}-8-quinolinamine]
other
  melting point: 179 to 182 °C

## COc1ccc2cc(C3=CC4CCC(C3)N4CCOc3cccc4[nH]ccc34)ccc2c1 (stereo not drawn) (as salt: oxalate) [Example 10, 4-{2-[3-(6-Methoxy-naphthalen-2-yl)-8-aza-bicyclo[3.2.1]oct-2-en-8-yl]-ethoxy}-1H-indole]
other
  melting point: 130 to 132 °C (dec.)

## FC(F)(F)c1cccc(OCCN2C3C=C(c4ccc5ccccc5c4)CC2CC3)c1 (stereo not drawn) (as salt: oxalate) [Example 11, 3-Naphthalen-2-yl-8-[2-(3-trifluoromethyl-phenoxy)-ethyl]-8-aza-bicyclo[3.2.1]oct-2-ene]
other
  melting point: 128 to 130 °C (dec.)

## c1ccc2cc(C3CC4CCC(C3)N4CCOc3cccc4[nH]ccc34)ccc2c1 (stereo not drawn) (as salt: oxalate) [Example 12, 4-[2-(3-Naphthalen-2-yl-8-aza-bicyclo[3.2.1]oct-8-yl)-ethoxy]-1H-indole]
other
  melting point: 119 to 120 °C (dec.)

## C1=C(c2c[nH]c3ccccc23)CC2CCC1N2CCOc1cccc2ncccc12 (stereo not drawn) [Example 3, 2-[3-(1H-Indol-3-yl)-8-azabicyclo[3.2.1]oct-2-en-8-yl]ethyl 5-quinolinyl Ether]
5-HT transporter
  Ki: 2.27 nM
Human 5-HT Transporter
  IC50: 86.5 nM
Human 5-HT1A receptor
  Ki: 173 nM
[1]
  IC50: 1170 nM
[1]; excess 8-OH-DPAT defines maximum agonist response, read-out: [35S]GTPgS Emax
  Emax: 0%

## C1=C(c2ccc3ccccc3c2)CC2CCC1N2CCOc1cccc2c1OCCO2 (stereo not drawn) [Example 4, 8-[2-(2,3-Dihydro-benzo[1,4]dioxin-5-yloxy)-ethyl]-3-naphthalen-2-yl-8-aza-bicyclo[3.2.1]oct-2-ene]
5-HT transporter
  Ki: 0.17 nM
Human 5-HT Transporter
  IC50: 21.7 nM
Human 5-HT1A receptor
  Ki: 329 nM

## COc1cc(NCCN2C3C=C(c4ccc5ccccc5c4)CC2CC3)c2ncccc2c1 (stereo not drawn) [Example 5, 6-Methoxy-N-{2-[3-(2-naphthyl)-8-azabicyclo[3.2.1]oct-2-en-8-yl]ethyl}-8-quinolinamine]
5-HT transporter
  Ki: 2.67 nM
Human 5-HT Transporter
  IC50: 42.8 nM

## Clc1cc(NCCN2C3C=C(c4ccc5ccccc5c4)CC2CC3)c2ncccc2c1 (stereo not drawn) [Example 6, 6-Chloro-N-{2-[3-(2-naphthyl)-8-azabicyclo[3.2.1]oct-2-en-8-yl]ethyl}-8-quinolinamine]
5-HT transporter
  Ki: 7.5 nM
other
  melting point: 205 to 206 °C

## C1=C(c2ccc3ccccc3c2)CC2CCC1N2CCNc1cccc2cccnc12 (stereo not drawn) [Example 7, N-{2-[3-(2-Naphthyl)-8-azabicyclo[3.2.1]oct-2-en-8-yl]ethyl}-8-quinolinamine]
5-HT transporter
  Ki: 1.61 nM
other
  melting point: 199 to 200 °C

## COc1ccc2cc(C3=CC4CCC(C3)N4CCOc3cccc4[nH]ccc34)ccc2c1 (stereo not drawn) [Example 10, 4-{2-[3-(6-Methoxy-naphthalen-2-yl)-8-aza-bicyclo[3.2.1]oct-2-en-8-yl]-ethoxy}-1H-indole]
5-HT transporter
  Ki: 1.11 nM
Human 5-HT Transporter
  IC50: 58.6 nM

## FC(F)(F)c1cccc(OCCN2C3C=C(c4ccc5ccccc5c4)CC2CC3)c1 (stereo not drawn) [Example 11, 3-Naphthalen-2-yl-8-[2-(3-trifluoromethyl-phenoxy)-ethyl]-8-aza-bicyclo[3.2.1]oct-2-ene]
5-HT transporter
  Ki: 34 nM
Human 5-HT Transporter
  IC50: 191 nM

## c1ccc2cc(C3CC4CCC(C3)N4CCOc3cccc4[nH]ccc34)ccc2c1 (stereo not drawn) [Example 12, 4-[2-(3-Naphthalen-2-yl-8-aza-bicyclo[3.2.1]oct-8-yl)-ethoxy]-1H-indole]
5-HT transporter
  Ki: 0.39 nM
Human 5-HT Transporter
  IC50: 35.7 nM

## c1ccc2cc(C3CC4CCC(C3)N4CCOc3cccc4cccnc34)ccc2c1 (stereo not drawn) [Example 17, 8-{2-[3-(2-Naphthyl)-8-azabicyclo[3.2.1]oct-8-yl]ethoxy}quinoline]
5-HT transporter
  Ki: 0.13 nM
other
  melting point: 110 to 113 °C

## c1ccc2cc(C3CC4CCC(C3)N4CCSc3cccc4cccnc34)ccc2c1 (stereo not drawn) [Example 18, 8-({2-[3-(2-Naphthyl)-8-azabicyclo[3.2.1]oct-8-yl]ethyl}sulfanyl)quinoline]
5-HT transporter
  Ki: 0.06 nM
Human 5-HT Transporter
  IC50: 3.5 nM
Human 5-HT1A receptor
  Ki: 256 nM
other
  melting point: 200 to 203 °C
